{"source": "patent US7572799B2", "about": "“Pyrazolo[4,3-d]pyrimidines as Phosphodiesterase Inhibitors” (Pfizer Inc, priority 2003, dated 2009)"}
{"target": "PDE-5 (UniProt O76074)", "assay": "In vitro PDE inhibitory activity against PDE5 (batch method or scintillation proximity assay)", "type": "biochemical, human", "details": "representative compounds", "text": "(§1) The compounds of the invention are inhibitors of cyclic guanylate monophosphate (cGMP)-specific phosphodiesterase type 5 (PDE-5 inhibitors).\n(§2) The required PDE enzymes can be isolated from a variety of sources, including human corpus cavernosum, human and rabbit platelets, human cardiac ventricle, human skeletal muscle and bovine retina, essentially by a modification of the method of Thompson, W J et al.; Biochemistry 18(23), 5228-5237, 1979, as described by Ballard S A et al.; J. Urology 159(6), 2164-2171, 1998. In particular, cGMP-specific PDE5 and cGMP-inhibited cAMP PDE3 can be obtained from human corpus cavernosum tissue, human platelets or rabbit platelets; cGMP-stimulated PDE2 was obtained from human corpus cavernosum; calcium/calmodulin (Ca/CAM)-dependent PDE1 from human cardiac ventricle; cAMP-specific PDE4 from human skeletal muscle; and photoreceptor PDE6 from bovine retina. Phosphodiesterases 7-11 can be generated from full length human recombinant clones transfected into SF9 cells.\n(§3) Assays can be performed either using a modification of the “batch”method of Thompson W J and Appleman M M; Biochemistry 10(2), 311-316, 1971, essentially as described by Ballard S A et al.; J. Urology 159(6), 2164-2171, 1998, or using a scintillation proximity assay for the direct detection of [^3H]-labelled AMP/GMP using a modification of the protocol described by Amersham plc under product code TRKQ7090/7100. In summary, for the scintillation proximity assay the effect of PDE inhibitors was investigated by assaying a fixed amount of enzyme in the presence of varying inhibitor concentrations and low substrate, (cGMP or cAMP in a 3:1 ratio unlabelled to [^3H]-labeled at a concentration of ˜⅓ Km, or less) such that IC50≅Ki. The final assay volume was made up to 100 μl with assay buffer [20 mM Tris-HCl pH 7.4, 5 mM MgCl2, 1 mg/ml bovine serum albumin]. Reactions were initiated with enzyme, incubated for 30-60 min at 30° C. to give <30% substrate turnover and terminated with 50 μl yttrium silicate SPA beads (containing 3 mM of the respective unlabelled cyclic nucleotide for PDEs 9 and 11).", "units": {"IC50": "nM"}}
{"compound": "CCCN(C)c1nc(NC2CCCCC2)c2c(n1)c(C(=O)O)nn2CCOCC", "note": "[Example 30]", "IC50": 35.8}
{"compound": "CCOCCn1nc(C(=O)O)c2nc(N(C)C(C)C)nc(NC3CCCC3)c21", "note": "[Example 31]", "IC50": 43.4}
{"compound": "CCOCCn1nc(C(=O)O)c2nc(N(C)C(C)C)nc(NC3CCC3)c21", "note": "[Example 32]", "IC50": 100}
{"compound": "CCOCCn1nc(C(=O)O)c2nc(N(C)C)nc(NC3CCC3)c21", "note": "[Example 33]", "IC50": 100}
{"compound": "CCOCCn1nc(C(=O)O)c2nc(N(C)C(C)C)nc(NC3CC3)c21", "note": "[Example 34]", "IC50": 100}
{"compound": "CCOCCn1nc(C(=O)O)c2nc(N(C)C)nc(NC3CC3)c21", "note": "[Example 35]", "IC50": 100}
{"compound": "Cc1ccnc(Nc2nc(N(C)C)nc3c(C(=O)O)nn(CC4CCOCC4)c23)c1", "note": "[Example 57]", "IC50": 100}
{"compound": "CCN(C)c1nc(Nc2cc(C)ccn2)c2c(n1)c(C(=O)O)nn2CC1CCOCC1", "note": "[Example 58]", "IC50": 100}
{"compound": "Cc1ccnc(Nc2nc(N(C)C)nc3c(C(=O)O)nn(CC4CCCCO4)c23)c1", "note": "(centres unmarked) [Example 59]", "IC50": 43.6}
{"compound": "CCN(C)c1nc(Nc2cc(C)ccn2)c2c(n1)c(C(=O)O)nn2CC1CCCCO1", "note": "(centres unmarked) [Example 60]", "IC50": 8.02}
{"compound": "CCOCCn1nc(C(=O)O)c2nc(N(C)C(C)C)nc(N[C@@H]3CCOC3)c21", "note": "[Example 67]", "IC50": 100}
{"compound": "CCOCCn1nc(C(=O)O)c2nc(N(CC)CC)nc(N[C@@H]3CCOC3)c21", "note": "[Example 68]", "IC50": 100}
{"compound": "CCOCCn1nc(C(=O)O)c2nc(N(C)C3CCC3)nc(N[C@@H]3CCOC3)c21", "note": "[Example 69]", "IC50": 100}
{"target": "PDE-5 (UniProt O76074)", "assay": "In vitro PDE inhibitory activity against PDE5 (batch method or scintillation proximity assay)", "type": "biochemical, human", "details": "representative compounds, read-out: IC50", "text": "as §1, §2, §3", "units": {"IC50": "nM"}}
{"compound": "CCOCCn1nc(C(=O)OC)c2nc(N(C)C(C)C)nc(Nc3cc(C)ccn3)c21", "note": "[Example 1, Methyl 1-(2-ethoxyethyl)-5-(N-isopropyl-N-methylamino)-7-(4-methylpyridin-2-ylamino)-1H-pyrazolo[4,3-d]pyrimidine-3-carboxylate]", "IC50": 0.075}
{"compound": "CCOCCn1nc(C(=O)OC)c2nc(N(C)CC)nc(Nc3cc(C)ccn3)c21", "note": "[Example 2]", "IC50": 0.201}
{"compound": "CCOCCn1nc(C(=O)OC)c2nc(N3CCN[C@H](C)C3)nc(Nc3cc(C)ccn3)c21", "note": "[Example 3]", "IC50": 5.01}
{"compound": "CCOCCn1nc(C(=O)OC)c2nc(N3C[C@@H]4C[C@H]3CN4)nc(Nc3cc(C)ccn3)c21", "note": "[Example 4]", "IC50": 2.62}
{"compound": "CCOCCn1nc(C(=O)OC)c2nc(N(C)C)nc(Nc3cc(C)ccn3)c21", "note": "[Example 5]", "IC50": 0.943}
{"compound": "CCOCCn1nc(C(=O)OC)c2nc(N(C)C(C)C)nc(Nc3cccc(C)n3)c21", "note": "[Example 6, Methyl 1-(2-ethoxyethyl)-5-(N-isopropyl-N-methylamino)-7-(6-methylpyridin-2-ylamino) -1H-pyrazolo[4,3-d]pyrimidine-3-carboxylate]", "IC50": 2.89}
{"compound": "CCOCCn1nc(C(=O)OCC)c2nc(N(C)CC)nc(Nc3cc(C)ccn3)c21", "note": "[Example 7, Ethyl 1-(2-ethoxyethyl)-5-(N-ethyl-N-methylamino)-7-(4-methylpyridin-2-ylamino)-1H pyrazolo[4,3-d]pyrimidine-3-carboxylate]", "IC50": 0.082}
{"compound": "CCOCCn1nc(C(=O)OCC)c2nc(N3CCN[C@H](C)C3)nc(Nc3cc(C)ccn3)c21", "note": "[Example 8]", "IC50": 3.82}
{"compound": "CCOCCn1nc(C(=O)OCC)c2nc(N(C)C(C)C)nc(Nc3cc(C)ccn3)c21", "note": "[Example 9]", "IC50": 0.075}
{"compound": "CCOCCn1nc(C(=O)OCCN(C)C)c2nc(N(C)C)nc(Nc3cc(C)ccn3)c21", "note": "[Example 10, 2-(Dimethylamino)ethyl 5-dimethylamino-1-(2-ethoxyethyl)-7-(4-methylpyridin-2-ylamino)-1H-pyrazolo[4,3-d]pyrimidine-3-carboxylate]", "IC50": 1.86}
{"compound": "CCOCCn1nc(C(=O)O)c2nc(N(CC)CC)nc(Nc3cc(C)ccn3)c21", "note": "[Example 11]", "IC50": 1.09}
{"compound": "CCOCCn1nc(C(=O)O)c2nc(N3CC[C@H](OC)C3)nc(Nc3cc(C)ccn3)c21", "note": "[Example 12]", "IC50": 14.7}
{"compound": "CCOCCn1nc(C(=O)O)c2nc(N3CC[C@@H](OC)C3)nc(Nc3cc(C)ccn3)c21", "note": "[Example 13]", "IC50": 1.46}
{"compound": "CCOCCn1nc(C(=O)O)c2nc(N(C)C)nc(Nc3cc(C)ccn3)c21", "note": "[Example 14]", "IC50": 8.75}
{"compound": "CCCN(C)c1nc(Nc2cc(C)ccn2)c2c(n1)c(C(=O)O)nn2CCOCC", "note": "[Example 15]", "IC50": 1.84}
{"compound": "CCOCCn1nc(C(=O)O)c2nc(N(C)CC(C)C)nc(Nc3cc(C)ccn3)c21", "note": "[Example 16]", "IC50": 0.51}
{"compound": "CCOCCn1nc(C(=O)O)c2nc(N(C)CCOC)nc(Nc3cc(C)ccn3)c21", "note": "[Example 17]", "IC50": 2.93}
{"compound": "CCOCCn1nc(C(=O)O)c2nc(N(C)C3CCCC3)nc(Nc3cc(C)ccn3)c21", "note": "[Example 18]", "IC50": 11.3}
{"compound": "CCCOCCn1nc(C(=O)O)c2nc(N(C)C(C)C)nc(Nc3cc(C)ccn3)c21", "note": "[Example 19]", "IC50": 2.43}
{"compound": "COCCn1nc(C(=O)O)c2nc(N(C)C(C)C)nc(Nc3cc(C)ccn3)c21", "note": "[Example 22]", "IC50": 7.12}
{"compound": "CCOCCn1nc(C(=O)O)c2nc(N(C)C)nc(Nc3ccc(C)cn3)c21", "note": "[Example 24]", "IC50": 53.9}
{"compound": "CCOCCn1nc(C(=O)O)c2nc(N(C)C(C)C)nc(Nc3cc(C)cc(C)n3)c21", "note": "[Example 26]", "IC50": 1.64}
{"compound": "CCOCCn1nc(C(=O)O)c2nc(N(C)C)nc(Nc3cc(C)cc(C)n3)c21", "note": "[Example 27]", "IC50": 36.8}
{"compound": "CCOCCn1nc(C(=O)O)c2nc(N(C)C(C)C)nc(Nc3ccncn3)c21", "note": "[Example 28]", "IC50": 11.6}
{"compound": "CCOCCn1nc(C(=O)O)c2nc(N(C)C(C)C)nc(Nc3cnccn3)c21", "note": "[Example 29]", "IC50": 106}
{"compound": "CCOCCn1nc(C(=O)O)c2nc(N(C)C(C)C)nc(Nc3cc(CC)ccn3)c21", "note": "[Example 36]", "IC50": 0.708}
{"compound": "CCOCCn1nc(C(=O)O)c2nc(N(C)C)nc(Nc3cc(CC)ccn3)c21", "note": "[Example 37]", "IC50": 23.9}
{"compound": "CCOCCn1nc(C(=O)O)c2nc(N(C)CC)nc(Nc3cccc(C)n3)c21", "note": "[Example 38]", "IC50": 16.7}
{"compound": "CCOCCn1nc(C(=O)O)c2nc(N(C)C)nc(Nc3cccc(C)n3)c21", "note": "[Example 39]", "IC50": 57.2}
{"compound": "CCOCCn1nc(C(=O)O)c2nc(N(C)CC)nc(Nc3cc(C)c(C)cn3)c21", "note": "[Example 40]", "IC50": 0.167}
{"compound": "CCOCCn1nc(C(=O)O)c2nc(N(C)C)nc(Nc3cc(C)c(C)cn3)c21", "note": "[Example 41]", "IC50": 3.2}
{"compound": "CCCN(CC1CC1)c1nc(Nc2cc(C)ccn2)c2c(n1)c(C(=O)O)nn2CCOCC", "note": "[Example 49]", "IC50": 4.92}
{"compound": "CCOCCn1nc(C(=O)O)c2nc(N(C)C(C)CC)nc(Nc3cc(C)ccn3)c21", "note": "(centres unmarked) [Example 50]", "IC50": 1.66}
{"compound": "CCOCCn1nc(C(=O)O)c2nc(N(C)C3CCC3)nc(Nc3cc(C)ccn3)c21", "note": "[Example 51]", "IC50": 2.57}
{"compound": "CCOCCn1nc(C(=O)O)c2nc(N(CC)CCOC)nc(Nc3cc(C)ccn3)c21", "note": "[Example 52]", "IC50": 3.4}
{"compound": "CCOCCn1nc(C(=O)O)c2nc(N3CCCC3C)nc(Nc3cc(C)ccn3)c21", "note": "(centres unmarked) [Example 53]", "IC50": 0.797}
{"compound": "CCOCCn1nc(C(=O)O)c2nc(NC(C)C)nc(Nc3cc(C)ccn3)c21", "note": "[Example 54]", "IC50": 2.03}
{"compound": "CCOCCn1nc(C(=O)O)c2nc(N[C@@H](C)CC)nc(Nc3cc(C)ccn3)c21", "note": "[Example 55]", "IC50": 2.6}
{"compound": "CCOCCn1nc(C(=O)O)c2nc(N[C@H](C)CC)nc(Nc3cc(C)ccn3)c21", "note": "[Example 56]", "IC50": 9.11}
{"compound": "Cc1ccnc(Nc2nc(N(C)C)nc3c(C(=O)O)nn(CCOC(C)C)c23)c1", "note": "[Example 61]", "IC50": 13.1}
{"compound": "CCN(C)c1nc(Nc2cc(C)ccn2)c2c(n1)c(C(=O)O)nn2CCOC(C)C", "note": "[Example 62]", "IC50": 1.85}
{"compound": "CCNc1nc(Nc2cc(C)ccn2)c2c(n1)c(C(=O)O)nn2CCOC(C)C", "note": "[Example 63]", "IC50": 4.58}
{"compound": "CO[C@H](C)Cn1nc(C(=O)O)c2nc(N(C)C)nc(Nc3cc(C)ccn3)c21", "note": "[Example 64]", "IC50": 100}
{"compound": "CCN(C)c1nc(Nc2cc(C)ccn2)c2c(n1)c(C(=O)O)nn2C[C@@H](C)OC", "note": "[Example 65]", "IC50": 25}
{"compound": "CCN(CC)c1nc(Nc2cc(C)ccn2)c2c(n1)c(C(=O)O)nn2C[C@@H](C)OC", "note": "[Example 66]", "IC50": 13.5}
{"compound": "CCOCCn1nc(C(=O)O)c2nc(N(C)CC)nc(Nc3ccnc(OC)n3)c21", "note": "[Example 70]", "IC50": 0.451}
{"compound": "CCOCCn1nc(C(=O)O)c2nc(N(C)C)nc(Nc3ccnc(OC)n3)c21", "note": "[Example 71]", "IC50": 2.46}
{"compound": "CCOCCn1nc(C(=O)O)c2nc(N(C)C(C)C)nc(Nc3ccnc(C)n3)c21", "note": "[Example 72]", "IC50": 59.2}
{"compound": "CCOCCn1nc(C(=O)O)c2nc(N(C)CC)nc(Nc3ccnc(C)n3)c21", "note": "[Example 73]", "IC50": 52.3}
{"compound": "CCOCCn1nc(C(=O)O)c2nc(N(C)CC)nc(Nc3cc(C)nc(C)n3)c21", "note": "[Example 74]", "IC50": 100}
{"compound": "CCOCCn1nc(-c2nc(=O)o[nH]2)c2nc(N(C)C(C)C)nc(Nc3cc(C)ccn3)c21", "note": "[Example 75, 3-[1-(2-Ethoxyethyl)-5-(N-isopropyl-N-methylamino)-7-(4-methylpyridin-2-ylamino)-1H-pyrazolo[4,3-d]pyrimidin-3-yl]-2H-1,2,4-oxadiazol-5-one]", "IC50": 0.371}
{"compound": "CCOCCn1nc(-c2nc(=O)o[nH]2)c2nc(N(C)CC)nc(Nc3cc(C)ccn3)c21", "note": "[Example 76]", "IC50": 0.465}
